This data set can be described thus: method code SF-AS, from DOI: 10.1016/s0045-6535(98)00132-5, PMID: 9753760.
As to `CCOc1ccccc1NC(=O)c1cccc([N+](=O)[O-])c1O`, the logP (as a rule, the decadic logarithm of the partition coefficient of the neutral form, usually between octanol and water) was found to be 2.04.
For `CCOc1ccccc1NC(=O)c1cc([N+](=O)[O-])ccc1O` the value was 2.34; for `Cc1c(Cl)cccc1NC(=O)c1cc([N+](=O)[O-])ccc1O`, 2.64; for `CCOc1ccc(NC(=O)c2cccc([N+](=O)[O-])c2O)cc1`, 1.98.
On to `COc1ccc(NC(=O)c2cc([N+](=O)[O-])ccc2O)cc1`, for which the logP is 2.19.
Under `Cc1ccc(NC(=O)c2cc([N+](=O)[O-])ccc2O)cc1` stands 2.22.
In turn, `COc1ccc(NC(=O)c2cccc([N+](=O)[O-])c2O)cc1` showed a logP of 1.83.
For `Cc1c(Cl)cccc1NC(=O)c1cccc([N+](=O)[O-])c1O` the value was 2.32; for `Cc1ccccc1NC(=O)c1cccc([N+](=O)[O-])c1O`, 1.9; for `O=C(Nc1ccc(Cl)cc1)c1cccc([N+](=O)[O-])c1O`, 2.16.
The molecule `O=C(Nc1ccc(Cl)cc1)c1cc([N+](=O)[O-])ccc1O` gave a logP of 2.54.
In turn, `Cc1ccc(NC(=O)c2cccc([N+](=O)[O-])c2O)cc1` registered a logP of 1.94.
Consider `Cc1ccc(Cl)cc1NC(=O)c1cccc([N+](=O)[O-])c1O`, for which the logP was 2.24.
`Cc1ccc(Cl)cc1NC(=O)c1cc([N+](=O)[O-])ccc1O` registered a logP of 2.61.

The record behind these values is the SangsterLogP compilation.
